The test system of experiment [1] is P. aeruginosa ATCC 27853. Kind of experiment: Standard EPI assay: MIC of test antibiotic (levofloxacin, cefepime) in absence and presence of EPI. Type of experiment: cell-based, Pseudomonas aeruginosa. The following applies: for Enhanced Activity in P. aeruginosa (fold enhancement of antibiotic activity): levofloxacin as antibiotic, Pseudomonas aeruginosa ATCC 27853. The method, then:
(§1) MIC assays were conducted in accordance with Clinical and Laboratory Standards Institute (CLSI) guidelines for broth microdilution.
(§2) The EPI assay for the purposes of these studies represents a MIC assay in which the MIC of the antibiotic against the bacteria is tested in the presence of an experimental efflux pump inhibitor (EPI). […] Using serial dilutions of the EPI, its enhancement of antibiotic activity was then evaluated. […] For the evaluation of the efficacy of an EPI against bacteria that were pre-exposed to an antibiotic, the inoculum of bacteria that used was developed from a bacterial culture isolated as a single colony following exposure at […] the MIC of the antibiotic (so as to induce efflux pump expression), was to be used in combination with the EPI.
(§3) The MIC of the test antibiotic is determined in the absence and presence of sub-inhibitory concentrations of the EPI. Initially, the sub-inhibitory concentration used was ½×MIC of the EPI. […] Similar methodology was employed to examine the synergy with Escherichia coli ATCC 25922 in the presence of varied concentrations of these EPIs using clarithromycin as the antibiotic.

The subject of experiment [2] is Escherichia coli ATC 25922. Kind of experiment: Bacterial EPI assay: MIC of clarithromycin in the presence of EPI. The following applies: clarithromycin as antibiotic. Type of experiment: cell-based. The method, then: as §1, §2, §3
Experiment [3] concerns P. aeruginosa ATCC 27853. Description: Intrinsic MIC assay (CLSI broth microdilution). Type of experiment: cell-based. The following applies: Pseudomonas aeruginosa, ATCC27853, read-out: intrinsic MIC of the EPI. On the procedure: as §1
The intrinsic MIC of the experimental EPIs was tested with the method described. The 2-fold serial dilution begin with 100 μg/mL of tested compound in the first column of the 96-well plates.
The following Gram-negative bacterial strains were included in these assays: • Escherichia coli ATCC 25922 • Klebsiella pneumoniae ATCC 13883 and ATCC 10031 • Pseudomonas aeruginosa ATCC 27853. • Acinetobacter baumannii ATCC 19606 Bacterial EPI Assays Tier 1 Testing
On the technique in general: Broth dilution looks for growth in wells or tubes with falling amounts of substance.

Experiment [4] has as its system P. aeruginosa ATCC 27853 pre-exposed to cefepime. Kind of experiment: Pre-exposure bacterial EPI assay. Type of experiment: cell-based, Pseudomonas aeruginosa. The method, then:
as §2
The principle underlying this pre-exposure is that exposure of the bacteria to sub-inhibitory concentrations of the test antibiotic will induce expression of efflux pumps, if any, and may represent the scenario in vivo more accurately.

The subject of experiment [5] is P. aeruginosa [ATCC 27853]. Description: Mouse septicemia model of infection. Type of experiment: in vivo, Pseudomonas aeruginosa. Conditions: mice, Experiment #489, cefepime, 10 mg/ml b.i.d. The method, then:
A general method for the in vivo assessment of bacterial EPIs is complicated by the fact that that both the antibiotic and the EPI need to be present for synergy to be achieved. A general method was discovered that has proven to be effective in establishing the relative efficacy of bacterial EPIs in a mouse septicemia model. The bacterial EPI is administered initially intravenously to mice with septicemia, followed 5 minutes later by the intravenous administration or oral administration of the antibiotic. A second administration of the EPI is then administered subcutaneously after an additional 5 minutes to act as a booster, followed by the final administration of the antibiotic either intravenously or orally after the second administration of the EPI. […] In a few instances, a second regiment of both EPI and antibiotic as administered on day 1 was required after 24 hours to affect cures.
Determination of the in vivo efficacy of bacterial efflux pump inhibitors (EPIs) can be efficiently determined using a mouse septicemia model of infection. The systemic infection is initiated by a 500 ul intraperitoneal injection of an inoculum containing bacteria (such as P. aeruginosa [ATCC 27853]) at a concentration of approximately 5×10^5 cells in 5% mucin in Swiss Webster female mice. […]

The mark [6] stands for this setting: P. aeruginosa ATCC 27853, 6.25 μg/mL of the EPI.

Molecules are shown by their SMILES. Counter-ions that a name gives are not always drawn. Marks after values point to notes of the source that are not given here.

Usually MIC stands for the lowest concentration that inhibits growth of the organism.

As for `Cl.Cl.NC[C@@H]1CNC(CNC(=O)c2cc(-c3ccc(C(F)(F)F)cc3)cc(-c3ccc(C(F)(F)F)cc3)c2)C1` (stereo in doubt) [Example 9, N-(((2R,4R)-4-(Aminomethyl)pyrrolidin-2-yl)methyl)-4,4″-bis(trifluoromethyl)-[1,1′:3′,1″-terphenyl]-5′-carboxamide hydrochloride salt], the “Enhanced Activity in P. aeruginosa (fold enhancement of antibiotic activity)” value with P. aeruginosa ATCC 27853 [1] (EPI at 12.5 μg) was 4x/12.5 μg.

`CC(C)(N)C1CN[C@H](CNC(=O)c2cc(-c3ccc(F)cc3)cc(-c3ccc(F)cc3)c2)C1.Cl.Cl` (stereo partly drawn) [Example 3, N-(((2S)-4-(2-aminopropan-2-yl)pyrrolidin-2-yl)methyl)-4,4″-difluoro-[1,1′:3′, 1″-terphenyl]-5′-carboxamide dihydrochloride]: the “Enhanced Activity in E. coli (fold enhancement of antibiotic activity)” value in experiment [2] (EPI at 12.5 μg) is given as 1024x/12.5 μg. Besides, in the experiment on P. aeruginosa ATCC 27853 [1] (EPI at 12.5 μg), the “Enhanced Activity in P. aeruginosa (fold enhancement of antibiotic activity)” value came to 32x/12.5 μg.

On to `Cl.Cl.NC[C@@H]1CN[C@H](CNC(=O)c2cc(-c3ccc(F)cc3)cc(-c3ccc(F)cc3)c2)C1` [Example 4, N-(((2S,4R)-4-(aminomethyl)pyrrolidin-2-yl)methyl)-4,4″-difluoro-[1,1′:3′,1″-terphenyl]-5′-carboxamide dihydrochloride], for which the “Enhanced Activity in E. coli (fold enhancement of antibiotic activity)” value in experiment [2] (EPI at 3.125 μg) came to 512x/3.125 μg. For the same compound, in the experiment on P. aeruginosa ATCC 27853 [1] (P. aeruginosa ATCC 27853, 6.25 μg/mL (½×MIC) of the EPI), the “MIC of levofloxacin in the presence of EPI” value is 0.016 µg/mL. In the experiment with P. aeruginosa ATCC 27853 [1] (setting [6]), the “MIC of cefepime in the presence of EPI” value was found to be 0.125 µg/mL, the “decrease of the MIC of cefepime relative to absence of EPI” value worked out at 16 fold and the “reduction of the MIC of levofloxacin relative to absence of EPI” value is on record as 64 fold. In addition, the “Enhanced Activity in P. aeruginosa (fold enhancement of antibiotic activity)” value in the experiment with P. aeruginosa ATCC 27853 [1] (EPI at 6.25 μg) was 64x/6.25 μg. For the same compound, the MIC in the experiment on P. aeruginosa ATCC 27853 [3] is 12.5 µg/mL. In experiment [4] (6.25 μg/mL of the EPI), the “MIC of cefepime against cefepime-exposed P. aeruginosa in the presence of EPI” value was found to be 0.25 µg/mL and the “reduction of MIC of cefepime against cefepime-exposed P. aeruginosa” value amounted to 64 fold. Moreover, the “% Survival (72 hr) Antibiotic + EPI” value in experiment [5] (250 ul + Example 4, 2.0 mg/ml b.i.d.) was 100%.

On to `Cl.Cl.NC[C@H]1CN[C@H](COc2cc(-c3ccc(F)cc3)cc(-c3ccc(F)cc3)c2)C1` [Example 7], for which the “Enhanced Activity in E. coli (fold enhancement of antibiotic activity)” value in experiment [2] (EPI at 3.125 μg) turned out to be 64x/3.125 μg. The “Enhanced Activity in P. aeruginosa (fold enhancement of antibiotic activity)” value in the experiment on P. aeruginosa ATCC 27853 [1] (EPI at 6.25 μg) turned out to be 2x/6.25 μg.

As to `Cl.Cl.N[C@@H]1CN[C@H](CNC(=O)c2cc(-c3ccc(F)cc3)cc(-c3ccc(F)cc3)c2)C1` [Example 1, N-(((2S, 4S)-4-aminopyrrolidin-2-yl)methyl)-4,4″-difluoro-[1, 1′:3′, 1′-terphenyl]-5′-carboxamide dihydrochloride], the “Enhanced Activity in E. coli (fold enhancement of antibiotic activity)” value in experiment [2] (EPI at 6.25 μg) is on record as 64x/6.25 μg. Also, in the experiment with P. aeruginosa ATCC 27853 [1] (EPI at 6.25 μg), the “Enhanced Activity in P. aeruginosa (fold enhancement of antibiotic activity)” value was determined as 2x/6.25 μg.

For the compound `NC[C@@H]1C[C@H](Oc2cc(-c3ccc(F)cc3)cc(-c3ccc(F)cc3)c2)CN1` [Example 8, ((2S,4S)-4-((4,4″-difluoro-[1,1′:3′,1″-terphenyl]-5′-yl)oxy)pyrrolidin-2-yl)methanamine], the “Enhanced Activity in E. coli (fold enhancement of antibiotic activity)” value in experiment [2] (EPI at 6.25 μg) was 2x/6.25 μg. In addition, in the experiment on P. aeruginosa ATCC 27853 [1] (EPI at 12.5 μg), the “Enhanced Activity in P. aeruginosa (fold enhancement of antibiotic activity)” value is listed as 1x/12.5 μg.

As for `CN1C[C@H](CN)C[C@H]1CNC(=O)c1cc(-c2ccc(F)cc2)cc(-c2ccc(F)cc2)c1` [Example 11, N-(((2S,4S)-4-(aminomethyl)-1-methylpyrrolidin-2-yl)methyl)-4,4″-difluoro-[1,1′:3′,1″-terphenyl]-5′-carboxamide hydrochloride salt], in experiment [2] (EPI at 6.25 μg), the “Enhanced Activity in E. coli (fold enhancement of antibiotic activity)” value came to 128x/6.25 μg.

For the compound `CO/N=C(\C(=O)N[C@@H]1C(=O)N2C(C(=O)[O-])=C(C[N+]3(C)CCCC3)CS[C@H]12)c1csc(N)n1` [cefepime, reference compound], the “increase of MIC of cefepime against pre-exposed versus unexposed P. aeruginosa” value in experiment [4] (pre-exposed to cefepime, no EPI) amounted to 8 fold. For the same compound, the “% Survival (72 hr) Antibiotic Only” value in experiment [5] (250 ul) worked out at 0%****.

Consider `Cl.Cl.NC[C@H]1CN[C@H](CNC(=O)c2cc(-c3ccc(F)cc3)cc(-c3ccc(F)cc3)c2)C1` [Example 5, N-(((2S,4S)-4-(aminomethyl)pyrrolidin-2-yl)methyl)-4,4″-difluoro-[1,1′:3′,1″-terphenyl]-5′-carboxamide dihydrochloride], for which, in experiment [2] (EPI at 6.25 μg), the “Enhanced Activity in E. coli (fold enhancement of antibiotic activity)” value is given as 1024x/6.25 μg. For the same compound, the “Enhanced Activity in P. aeruginosa (fold enhancement of antibiotic activity)” value in the experiment on P. aeruginosa ATCC 27853 [1] (EPI at 6.25 μg) came out at 32x/6.25 μg.

`CN(C)C[C@H]1CN[C@H](CNC(=O)c2cc(-c3ccc(F)cc3)cc(-c3ccc(F)cc3)c2)C1` [Example 12, N-(((2S,4R)-4-((dimethylamino)methyl)pyrrolidin-2-yl)methyl)-4,4″-difluoro-[1,1′:3′,1″-terphenyl]-5′-carboxamide hydrochloride salt]: the “Enhanced Activity in E. coli (fold enhancement of antibiotic activity)” value in experiment [2] (EPI at 25 μg) was 2x/25 μg.

Consider `CC(C)(C(=O)NC[C@@H]1C[C@H](N)CN1)c1cc(-c2ccc(F)cc2)cc(-c2ccc(F)cc2)c1.Cl.Cl` [Example 2], for which the “Enhanced Activity in E. coli (fold enhancement of antibiotic activity)” value in experiment [2] (EPI at 6.25 μg) was 8x/6.25 μg.

For the compound `CC(C)(C(=O)NC[C@@H]1C[C@H](CN)CN1)c1cc(-c2ccc(F)cc2)cc(-c2ccc(F)cc2)c1` [Example 10, N-(((2S,4R)-4-(aminomethyl)pyrrolidin-2-yl)methyl)-2-(4,4″-difluoro-[1,1′:3′,1″-terphenyl]-5′-yl)-2-methylpropanamide hydrochloride salt], the “Enhanced Activity in E. coli (fold enhancement of antibiotic activity)” value in experiment [2] (EPI at 6.25 μg) turned out to be 512x/6.25 μg.

Regarding `CNC[C@@H]1CN[C@H](CNC(=O)c2cc(-c3ccc(F)cc3)cc(-c3ccc(F)cc3)c2)C1` [Example 14, 4,4″-difluoro-N-(((2S,4R)-4-((methylamino)methyl)pyrrolidin-2-yl)methyl)-[1,1′:3′,1″-terphenyl]-5′-carboxamide hydrochloride salt], the “Enhanced Activity in E. coli (fold enhancement of antibiotic activity)” value in experiment [2] (EPI at 6.25 μg) amounted to 64x/6.25 μg. Moreover, the “Enhanced Activity in P. aeruginosa (fold enhancement of antibiotic activity)” value with P. aeruginosa ATCC 27853 [1] (EPI at 12.5 μg) is 32x/12.5 μg.

Take `Cl.Cl.NC[C@@H]1CN[C@H](COc2cc(-c3ccc(F)cc3)cc(-c3ccc(F)cc3)c2)C1` [Example 6, ((3R,5S)-5-(((4,4″-difluoro-[1,1′:3′,1″-terphenyl]-5′-yl)oxy)methyl)pyrrolidin-3-yl)methanamine dihydrochloride]: the “Enhanced Activity in E. coli (fold enhancement of antibiotic activity)” value in experiment [2] (EPI at 3.125 μg) was found to be 32x/3.125 μg. Besides, the “Enhanced Activity in P. aeruginosa (fold enhancement of antibiotic activity)” value with P. aeruginosa ATCC 27853 [1] (EPI at 6.25 μg) is recorded as 1x/6.25 μg.

(Values after patent US11938114B2, “Bacterial efflux pump inhibitors” (priority 2017, dated 2024).)
